From patent publication US20230241056A1, “PHARMACEUTICAL COMPOSITION FOR TREATING MACULAR DEGENERATION INCLUDING IMIDAZOLINE DERIVATIVE COMPOUND AS ACTIVE INGREDIENT” (FUSION BIOTECHNOLOGY CO., LTD., priority 2021, published 2023)

Tests used:
[1] = tested on: p53; test: p53 overexpression induction, western blot; assay type: cell-based, human; settings: Nutlin-3 at different concentrations
Protocol: Doxorubicin-treated senescent cells (SnCs) grown in the 6-well plate of Example 1 and non-senescent cells (non-SnCs) were treated with different concentrations of Nutlin-3, and then, dissolved in RIPA buffer (Thermo Fisher Scientific, 89901) supplemented with protease inhibitor cocktail (Roche, 11697498001, Basel, Switzerland). The protein concentration of cells was quantified using BCA assay (Pierce, 23227, Waltham, USA). The same amount of protein was separated by SDS-PAGE in a 10-12% polyacrylamide gel and transferred to a polyvinylidene difluoride (PVDF) membrane. Then, the PVDF membrane was blocked with 5% skim milk powder in buffer for 1 hour, and anti-p53 (1: 500, Santa Cruz Biotechnology, SC-126) and anti-β-actin (1: 2000, Abcam, ab8226) antibodies were added thereto, incubated overnight at 4° C., and then incubated with horseradish peroxidase-conjugated anti-mouse IgG (1: 5000, Cell Signaling, 7076S) antibodies. The immunoreactive proteins were then visualized using a chemiluminescent substrate (Amersham, RDN2232, Little Chalfont, UK) and quantified with a densitometer using ImageJ software (NIH, USA). All experiments were repeated at least three times.

[2] = tested on: ZO-1 or APOE; test: ZO-1 and drusen marker APOE expression in vivo with combination; settings: senescence-induced mice of Example 12
Protocol: In addition, the expression of ZO-1 and the expression of the drusen marker APOE were confirmed to identify the cell tissue alignment state. Specifically, after blocking the retinal tissue with 1% BSA in PBS for 1 hour, fixed tissue or cells were incubated with primary antibody (1:50, Santa Cruz Biotechnology) against ZO-1 (1:250, Invitrogen) or APOE overnight at 4° C. Stained tissues or cells were washed twice with PBS for 5 minutes and incubated with Alexa Fluor-conjugated secondary antibody for 2 hours at room temperature. As the secondary antibody, Alexa Fluor 555-conjugated goat anti-mouse IgG (Thermo Fisher Scientific, A-11029, Waltham, USA), Alexa Fluor 488-conjugated goat anti-mouse IgG (Thermo Fisher Scientific, A-21424), Alexa Fluor 555-conjugated goat anti-rabbit IgG (Thermo Fisher Scientific, A-21424), or Alexa Fluor 488-conjugated \u200b\u200b goat anti-rabbit IgG (Thermo Fisher Scientific, A-11034) was used. All secondary antibodies were used after being diluted at the ratio of 1:1000. After incubation with the secondary antibody, tissues or cells were stained with nuclear dye DAPI (1:4000, Thermo Fisher Scientific, 62248) or Hoechst 33342 (1:3000, Thermo Fisher Scientific, H3570) in PBS for 15 minutes at room temperature. Thereafter, the tissues were then fixed in a fixing media (Ployscience, 18606-20, PA, USA).

[3] = tested on: ZO-1; test: Cell tissue alignment state in vivo, ZO-1 expression; settings: 20 ng/μl Nutlin-3 intravitreal, senescence-induced mice
Protocol: (§1) After dilation of the eye with TRC-50 IX camera (Topcon, Tokyo, Japan) connected to a digital imaging system (Nikon, Japan) and HRA2 (Heidelberg Engineering, Heidelberg, Germany), the color fundus image and fundus autofluorescence image of the eye of the mice were each captured. […] In addition, in order to identify the cell tissue alignment state, ZO-1 expression was confirmed. Specifically, after blocking the retinal tissue with 1% BSA in PBS for 1 hour, fixed tissue or cells were incubated with primary antibody against ZO-1 (1:250, Invitrogen) overnight at 4° C. Stained tissues or cells were washed twice with PBS for 5 minutes and incubated with Alexa Fluor-conjugated secondary antibody for 2 hours at room temperature. As the secondary antibody, Alexa Fluor 555-conjugated goat anti-mouse IgG (Thermo Fisher Scientific, A-11029, Waltham, USA), Alexa Fluor 488-conjugated goat anti-mouse IgG (Thermo Fisher Scientific, A-21424), Alexa Fluor 555-conjugated goat anti-rabbit IgG (Thermo Fisher Scientific, A-21424), or Alexa Fluor 488-conjugated \u200b\u200b goat anti-rabbit IgG (Thermo Fisher Scientific, A-11034) was used. All secondary antibodies were used after being diluted at the ratio of 1:1000. […]

[4] = tested on: senescent cells of the retinal tissue; test: Senescent cell killing in vivo, SA-β-gal staining of retinal tissue; settings: 20 ng/μl Nutlin-3 intravitreal, 2 injections, Dox or Alu RNA induced mice
Text: Anterior eyeballs were dissected in cold PBS.

[5] = tested on: retinal tissue; test: Drusen and Bruch's membrane thickness in vivo by TEM after Nutlin-3; set-up: species or system mice; settings: doxorubicin and Nutlin-3 group
Protocol: The eyeball of mice in a group injected with a vehicle alone as in Example 9, a group injected with doxorubicin and a vehicle, and a group injected with doxorubicin and Nutlin-3, were fixed with a solution including 2% glutaraldehyde and 3.75% sucrose in 0.1 M sodium phosphate buffer (pH 7.0) for 30 minutes, and washed three times with 0.1 M PBS including 3.75% sucrose for 30 minutes to prepare a sample for TEM. The eye was fixed with a solution including 0.1% osmium tetraoxide and 5% sucrose in 0.05 M sodium phosphate buffer (pH 7.0) for 1 hour and rinsed three times with distilled water. The sample was then dehydrated in a series of acetone solutions (step 20%), which are graded, and embedded in an epoxy resin. The resin was polymerized at 70° C. for 12 hours. Ultra-thin sections (100 nm) were obtained using RMC CR-X ultra microtomes and then images thereof were obtained using a JEOL JEM-1400 electron microscope. The thickness of the Bruch's membrane was measured using TEM. The average thickness of the Bruch's film was determined by measuring the thicknesses in the nine images of respective groups, and the results are shown in FIGS. 16 and 17.

[6] = tested on: Doxorubicin-treated senescent cells (SnCs) and non-senescent cells (ARPE-19); test: Selective killing of senescent cells, propidium iodide staining; assay type: cell-based, human; settings: PI staining
Protocol: To determine whether Nutlin-3 selectively killed senescent cells, the cells were treated with Nutlin-3 as follows and stained with propidium iodide.
Doxorubicin-treated senescent cells (SnCs) grown in the 24-well plate of Example 1 and non-senescent cells (non-SnCs) were treated with Nutlin-3 at different concentrations. After 24 hours, the medium was removed, and a medium including propidium iodide (PI, BD Biosciences, 51-66211E, 1.5 ug/ml) and Hoechst 33342 (Invitrogen, H1399, 1 ug/ml) was added to each well. After 30 minutes, images were obtained using an ultra-high-resolution confocal laser scanning microscope (Carl Zeiss, LSM 800).

[7] = tested on: retinal tissue; test: Lesion alleviation in vivo with combination, fundus autofluorescence image; settings: senescence-induced mice of Example 12
Protocol: Under an optical microscope (Olympus SZ51, Tokyo, Japan), a small hole was made in the limbus using a 30-gage sterile needle (BD Science, San Jose, USA). Then, a blunt 35-gage Hamilton microsyringe (Hamilton Company, NV, USA) was slowly inserted through the hole. After injecting 1 uL of 100 ng/μl Dox or 1.4 μg/μl Alu RNA into the subretinal space of C57BL/6N or C57BL/6J mice for 7 days, 20 ng/μl Nutlin-3 (#SML0580, St. Louis, USA) or vehicle (0.4% DMSO in normal saline) was administered to the retina on day 0 and day 3, and 50 mg/kg of Nutlin-3 and 100 mg/kg of nicotinamide were mixed at the ratio of 1:2 and the mixture was administered orally through the feeding needle catheter every day for 3 days.
After dilation of the eye with TRC-50 IX camera (Topcon, Tokyo, Japan) connected to a digital imaging system (Nikon, Japan) and HRA2 (Heidelberg Engineering, Heidelberg, Germany), the fundus autofluorescence image of the eye of the mice was captured.

[8] = tested on: retinal tissue; test: Lesion mitigation in vivo, color fundus and fundus autofluorescence images; settings: 20 ng/μl Nutlin-3 intravitreal, senescence-induced mice
Protocol: as §1

[9] = tested on: ARPE-19 cells; test: Induction of senescent cells by doxorubicin, SA-β-gal staining; assay type: cell-based, human; settings: 250 nM doxorubicin, 3 days
Text: ARPE-19, a human retinal pigment epithelium (RPE) cell line, was induced into senescent cells using doxorubicin (Dox), which is used to form peroxide anions, induce DNA damage, and induce cell aging.
ARPE-19 cells were obtained from American Type Culture Collection (ATCC, CRL-2302, Va., U.S.A.), and cultured using a Dulbecco's modified Eagle's medium/nutrient mixture F-12 (WellGene, LM 002-04, Korea) supplemented with 10% fetal bovine serum (Invitrogen 16000, Waltham, U.S.A.) and penicillin-streptomycin (pen/strep, WellGene, LS 202-02) in a humidifying incubator having 5% CO2 at the temperature of 37° C. Cells were used after the cells were subcultured to 15-25 passages and reached the density population of about 70%-about 80%.
The cultured ARPE-19 cells were seeded in 24- or 6-well plates at a density of 25,000 or 100,000 cells per well prior to inducing cell aging with doxorubicin (Dox, Tocris Bioscience #2252, Bristol, UK). After 24 hours, 250 nM doxorubicin was added and the cells were incubated for another 3 days. After 3 days, the cells were placed in a doxorubicin-free medium and the medium was replaced daily. On day 10, senescent cells (SnCs) that were treated with doxorubicin and non-senescent cells (non-SnCs) that were not treated with doxorubicin but replaced with medium alone were seeded into 24- or 6-well plates for further experiments. […]

[10] = tested on: retinal tissue; test: Drusen and Bruch's membrane thickness by TEM after senescence induction with doxorubicin; assay type: in vivo, mice; settings: 100 ng/μl Dox subretinal
Protocol: Under an optical microscope (Olympus SZ51, Tokyo, Japan), a small hole was made in the limbus using a 30-gage sterile needle (BD Science, San Jose, USA). Then, a blunt 35-gage Hamilton microsyringe (Hamilton Company, NV, USA) was slowly inserted through the hole. 1 uL of 100 ng/μl Dox or 1.4 μg/μl Alu RNA was injected into the subretinal space of C57BL/6N or C57BL/6J mice for 7 days. In addition, the eye of mice was fixed with a solution including 2% glutaraldehyde and 3.75% sucrose in 0.1 M sodium phosphate buffer (pH 7.0), for 30 minutes, and washed three times with 0.1 M PBS including 3.75% sucrose for 30 minutes to prepare a sample for TEM. The eye was fixed with a solution including 0.1% osmium tetraoxide and 5% sucrose in 0.05 M sodium phosphate buffer (pH 7.0) for 1 hour and rinsed three times with distilled water. The sample was then dehydrated in a series of acetone solutions (step 20%), which were graded, and embedded in an epoxy resin. The resin was polymerized at 70° C. for 12 hours. Ultra-thin sections (100 nm) were obtained using RMC CR-X ultra microtomes and then images thereof were obtained using a JEOL JEM-1400 electron microscope. The thickness of the Bruch's membrane was measured using TEM.

Compound	expression of p53 in senescent cells [1]	cell tissue alignment state (ZO-1) compared to vehicle group [2]	cell tissue alignment (ZO-1) compared to vehicle group [3]	β-galactosidase expression compared to vehicle group [4]	amount of drusen compared to vehicle-only senescent cells [5]	thickness of the Bruch's membrane compared to vehicle-only senescent cells [5]	senescent cells killed compared with non-senescent cells ([6]; 50 uM Nutlin-3, 24 hours) [times]	senescent cells killed compared with non-senescent cells ([6]; 75 uM Nutlin-3, 24 hours) [times]	waste in fundus autofluorescence image compared to vehicle group [7]	waste in fundus images compared to vehicle group [8]	induction of ARPE-19 cells into senescent cells (SA-β-gal staining) [9]	amount of drusen after senescent cell induction [10]	thickness of the Bruch's membrane after senescent cell induction [10]
COc1ccc(C2=N[C@@H](c3ccc(Cl)cc3)[C@@H](c3ccc(Cl)cc3)N2C(=O)N2CCNC(=O)C2)c(OC(C)C)c1 [Nutlin-3]	further increased	improved	improved	low	reduced	reduced	7	3	significantly reduced	significantly reduced			
COc1cccc2c1C(=O)c1c(O)c3c(c(O)c1C2=O)C[C@@](O)(C(=O)CO)C[C@@H]3O[C@H]1C[C@H](N)[C@H](O)[C@H](C)O1 [doxorubicin]											induced to senescent cells	increased	increased
